In data set [1] the test system is corticosterone-treated mice. The data set is described as follows: Novelty Suppressed Feeding (NSF), chronic administration. Conditions: chronic 1mg/kg ip daily. It counts as in vivo. As to the method: Three well-established mouse models of depression-like behavior have been used in the present study namely i- the long-term corticosterone treatment in the drinking water (David, Samuels et al. 2009), ii- the peripheral administration of LPS (O'Connor, Lawson et al. 2009) iii- the ApN^-/- mice (Liu, Guo et al. 2012). For chronic AdipoRon treatment, the experimental protocol was as followed: • i- Five weeks old male mice (five/cage) received corticosterone (35mg/L dissolved in tap water containing 4 g/L CD) or vehicle alone ad libitum for during 7 consecutive weeks (David, Samuels et al. 2009). Corticosterone and vehicle solutions were changed every 3 days to prevent possible degradation. […]
All behavioral testing were conducted during the light phase (between 09:00 and 14:00 am) in compliance with the Institutional Animal Care and Use Committee of the University of Nice-Sophia Antipolis (permission number 010344.01 from the French "Ministère de l'Enseignement Supérieur et de la Recherche" granted to Dr. Joëlle Chabry). • Forced Swimming test (FST) - Mice were placed an inescapable transparent tank (20cm diameter, 30cm deep) filled with water (23°C ± 0.5) for six minutes as previously described by Porsolt et al. (1977). […] To initiate testing, mice were placed into the light side and activity was recorded for 5 minutes. […]

The nature of data set [2]: Weight, food and water intake under chronic treatment. Type of data set: in vivo, mice. To be noted: chronic AdipoRon treatment. As to the method: Three well-established mouse models of depression-like behavior have been used in the present study namely i- the long-term corticosterone treatment in the drinking water (David, Samuels et al. 2009), ii- the peripheral administration of LPS (O'Connor, Lawson et al. 2009) iii- the ApN^-/- mice (Liu, Guo et al. 2012). For chronic AdipoRon treatment, the experimental protocol was as followed: • i- Five weeks old male mice (five/cage) received corticosterone (35mg/L dissolved in tap water containing 4 g/L CD) or vehicle alone ad libitum for during 7 consecutive weeks (David, Samuels et al. 2009). Corticosterone and vehicle solutions were changed every 3 days to prevent possible degradation. Additionally, during the last three weeks of corticosterone treatment, mice were daily intraperitoneally (ip) injected with AdipoRon (1mg/kg in 2.5% DMSO) or vehicle alone. • ii- Eight weeks old male mice daily ip injected with AdipoRon or vehicle as described above for twenty consecutive days. One day prior behavioral testing, mice were injected ip with LPS (0.83 mg/kg) or saline solution; the LPS dose was selected on the basis of its ability to induce the full spectrum of the acute sickness and depressive-like behaviors (Lestage, Verrier et al. 2002).

For data set [3], the system named is neurons of dorso-median raphe nucleus. The data set is described as follows: Whole-cell patch-clamp recordings on brain slices, current clamp. It counts as cell-based, mouse. On the technique in general: Patch clamp records ionic current or voltage across a cell membrane.

The structures appear in SMILES notation.

With `O=C(COc1ccc(C(=O)c2ccccc2)cc1)NC1CCN(Cc2ccccc2)CC1` [AdipoRon, 2-(4-Benzoylphenoxy)-N-[1-(phenylmethyl)-4-piperidinyl]-acetamide], the “latency to eat in the NSF” value in data set [1] (corticosterone-treated mice) is reported as “reversed the effect of corticosterone”; in data set [1] (vehicle-treated mice (no corticosterone)), “no significant effect”. Moreover, the “food and water intake” value in data set [2] was “did not significantly modify”. Further, the weight of mice result in data set [2] was “did not significantly modify”. Further, in data set [3] (1/7 presumed serotoninergic neuron, current clamp), the action potential discharge entry is “no effect”. The membrane potential result in data set [3] (6 out of 7 presumed serotoninergic neurons, current clamp) is reported as “small depolarization”; in data set [3] (presumed non-serotoninergic neurons, 2/4), “hyperpolarization”; in data set [3] (presumed non-serotoninergic neurons, the other 2/4) it was “no effect”. Also, the “action potential discharge frequency” value in data set [3] (6 out of 7 presumed serotoninergic neurons, current clamp, N= 4 mice) is listed as “increase in action potential discharge frequency”.

(Values after patent EP3431468B1, “USE OF ADIPONECTIN RECEPTOR AGONISTS IN TREATING DEPRESSION, ANXIETY AND NEUROINFLAMMATION” (CENTRE NATIONAL DE LA RECHERCHE SCIENTIFIQUE, priority 2017, dated 2019).)
